How the values were obtained:
[1] = system: Hepatocyte; experiment: Antihepatotoxic activity against CCl4-induced cytotoxicity in rat hepatocytes assessed as blockade of glutamic pyruvic transaminase release at 25 uM by Reitman-Frankel method relative to control; type: functional
[2] = system: Hepatocyte; experiment: Antihepatotoxic activity against CCl4-induced cytotoxicity in rat hepatocytes assessed as blockade of sorbitol dehydrogenase release at 25 uM by modified Gerlach method relative to control; type: functional

For `CCCCCCCCC/C=C\CC/C=C/[C@@H](O)[C@H](CO[C@@H]1O[C@H](CO)[C@@H](O)[C@H](O)[C@H]1O)NC(=O)C(O)CCCCCCCCCCCCCC` (stereo partly specified), the Activity [1] was 86.4% and the Activity [2] was 69.5%.
`CCCCCCCCC/C=C\CC/C=C/[C@@H](O)[C@H](CO[C@@H]1O[C@H](CO)[C@@H](O)[C@H](O)[C@H]1O)NC(=O)CCCCCCCCCCCCCCC` showed an Activity [1] of 95.6% and an Activity [2] of 80.2%.
In the case of `COc1cc(C2Oc3cc([C@H]4Oc5cc(O)cc(O)c5C(=O)[C@@H]4O)ccc3OC2CO)ccc1O` (stereo partly specified) [SILIBININ], the Activity [1] was 76% and the Activity [2] was 58.9%.
